Measured values: the NIST ThermoML archive (doi:10.1021/je500784s)
“And” between values parts separate entries of the source, which are not always exact repeats. Equal entries are not always repeated.

Tests used:
[1] = for vapor or sublimation pressure: Transpiration method; for Normal melting temperature: DTA
[2] = Molar enthalpy of transition or fusion; conditions: Crystal; DSC

Cc1ccccc1Br [2-bromotoluene]
[1], Liquid
Conditions	vapor or sublimation pressure
281.2 K	0.04946 kPa
284.2 K	0.06067 kPa
285.2 K	0.06568 kPa
287.2 K	0.07592 kPa and 0.07526 kPa
290.2 K	0.09238 kPa
293.2 K	0.1131 kPa
296.2 K	0.1381 kPa
299.2 K	0.1684 kPa
302.2 K	0.2053 kPa
305.2 K	0.25 kPa
308.2 K	0.3008 kPa [middle of 4 runs]
313.1 K	0.3903 kPa [middle of 6 runs]

Cc1ccc(Br)cc1 [4-bromotoluene]
[1]
Conditions	vapor or sublimation pressure [kPa]
274.5 K, Crystal	0.01409
277.2 K, Crystal	0.01853
278.3 K, Crystal	0.02013
280.2 K, Crystal	0.02439
282.2 K, Crystal	0.02935
283.2 K, Crystal	0.0328
285.5 K, Crystal	0.04128
286.2 K, Crystal	0.04379
288.3 K, Crystal	0.05178
289.6 K, Crystal	0.05809
291.2 K, Crystal	0.06948
294.3 K, Crystal	0.08957
297.3 K, Crystal	0.1161
298.2 K, Crystal	0.1223
299.2 K, Crystal	0.1357
300.8 K, Crystal	0.1543
301.9 K, Liquid	0.1746
304.2 K, Liquid	0.1989
304.9 K, Liquid	0.2137
307.2 K, Liquid	0.2422
310.3 K, Liquid	0.2964
313.2 K, Liquid	0.3477
314.4 K, Liquid	0.3671
316.3 K, Liquid	0.4044
317.5 K, Liquid	0.4335
319.3 K, Liquid	0.4827
320.6 K, Liquid	0.507
322.4 K, Liquid	0.5742
325.3 K, Liquid	0.6696
328.2 K, Liquid	0.7835
331.3 K, Liquid	0.8879
332.3 K, Liquid	0.9409
335.3 K, Liquid	1.1

Conditions	Normal melting temperature [°C]
[1], Crystal	28.2

Conditions	Molar enthalpy of transition or fusion [kcal/mol]
[2]	3.56

Cc1ccc(I)cc1 [4-iodotoluene]
[1]
Conditions	vapor or sublimation pressure
279.5 K, Crystal	0.00537 kPa
283.3 K, Crystal	0.008 kPa
286.3 K, Crystal	0.01101 kPa
289.4 K, Crystal	0.01456 kPa
293.2 K, Crystal	0.0205 kPa and 0.02183 kPa
298.1 K, Crystal	0.0335 kPa
303 K, Crystal	0.0526 kPa
308 K, Liquid	0.08115 kPa
311 K, Liquid	0.09922 kPa
315 K, Liquid	0.1261 kPa
319.1 K, Liquid	0.1599 kPa
323.2 K, Liquid	0.2025 kPa
328.1 K, Liquid	0.2776 kPa
332.9 K, Liquid	0.3665 kPa

Conditions	Normal melting temperature [°C]
[1], Crystal	34.4

Conditions	Molar enthalpy of transition or fusion [kcal/mol]
[2]	3.59

Brc1ccccc1 [bromobenzene]
[1], Liquid
Conditions	vapor or sublimation pressure [kPa]
276.4 K	0.1345
278.3 K	0.1534
282.2 K	0.1957
283.1 K	0.2092
285.4 K	0.2487
286.2 K	0.2532
288.3 K	0.2954
289.3 K	0.3211
291.4 K	0.3549
292.4 K	0.3794
293.2 K	0.4046
294.4 K	0.4413
295.5 K	0.4596
297.4 K	0.5225
300.4 K	0.6407
303.4 K	0.7604

Ic1ccccc1 [iodobenzene]
[1], Liquid
Conditions	vapor or sublimation pressure [kPa]
283.8 K	0.05269
286.8 K	0.06386
289.9 K	0.08034
293 K	0.09644
294 K	0.1029
296.8 K	0.1261
299.6 K	0.1487
302.6 K	0.1853
305.7 K	0.2226
308.7 K	0.2722
311.8 K	0.3239
314.6 K	0.3944
